The experiment has as its system rat tracheal smooth muscle. In words: Proliferation of cultured airway smooth muscle (MTT reduction, cell counts). It is filed as cell-based. As to conditions: for growth inhibition by direct visual count of stained cells: 10% FBS, 15,000 cells/well cultured for 24 hours (Figure 4A); for inhibition of FBS-induced cell proliferation (comparison in words): 10% FBS, 15,000 cells/well, 92-96 hours, MTT (Figures 3A, 3C). The method, then: Polyclonal horseradish peroxidase anti-rabbit IgG was from Transduction Laboratories (Lexington, KY). M-MLV reverse transcriptase was from Life Technologies (Gaithersburg, MD). All other materials were obtained from Sigma unless specified. Measurement of Cultured Airway Smooth Muscle Proliferation. Rat tracheal smooth muscle was cultured by euthanizing rats with pentobarbital overdose and removal of their tracheas. The posterior tracheal membrane was isolated, minced and digested twice for 30 minutes at 37°C. in HBSS containing 0.2% type IV collagenase and 0.05% type IV elastase. Each enzyme digest was collected and centrifuged for 5 minutes at 500 g at room temperature. The supernatant was removed and the pellet was resuspended in DMEM supplemented with 10% FBS, nonessential amino acids, penicillin (100 U/ml), streptomycin (100 µg/ml) and amphotericin (250 ng/ml). Cells were seeded in this medium into 25-cm^2 flasks at 2 x 10^5 cells per flask and incubated in a humidified atmosphere of 5% CO2/95% air at 37°C. Upon reaching confluence, cells were detached with 0.25% trypsin-0.002% EDTA solution for passage.
Proliferation of cultured airway smooth muscle was quantitated using modification of a previously reported colorimetric method based upon metabolic reduction of the soluble yellow tetrazolium dye 3-[4,5-dimethylthiazol]-2yl-2,5-diphenyl tetrazolium bromide (MTT) to its insoluble purple formazan by the action of mitochondrial succinyl dehydrogenase. See Hirst, S.J., Barnes, P.J., and Twort, C.H.C., "Quantifying proliferation of cultured human and rabbit airway smooth muscle in response to serum and platelet derived growth factor," Am. J. Respir. Cell Mol. Biol., 7, 574-581 (1992). This assay empirically distinguishes between dead and living cells. For proliferation studies, cells were seeded into 24-well uncoated plastic plates at 15,000-50,000 cells per well and cultured with DMEM and mitogens. After 24-96 hours the medium was replaced with 1 ml/well fresh DMEM containing 100 µg/ml MTT and 0.5% FBS, and plates were incubated an additional hour MTT-containing medium was removed, cells were washed twice with 1 ml of sterile Dulbecco's modified phosphate buffered saline without Ca^2+ or Mg^2+ (DPBS), 0.5 ml dimethylsulfoxide (DMSO) was added to each well, and the absorbance of the solubilized purple formazan dye was measured at 540 nm on a Shimadzu UV160U spectrophotometer. A total of 4-6 wells was studied at each treatment condition.
The optimum concentration of FBS for use as a mitogenic stimulus was determined by incubating 15,000 cells per well with DMEM containing 0.25, 1.0, 5.0 or 10.0% FBS and MTT reduction was determined after 24, 48, 72 or 96 hours. […] After 24 hours, cells were washed twice with DPBS, fixed and permeabilized by two sequential 5 minute exposures to ice-cold methanol, stained with Giemsa-modified Wright's stain for 3 minutes and washed with DPBS. Cell counts were performed on 10 random fields at 40 power using a 0.01-cm^2 ocular grid. Cell Culture Treatments for Measurement of Airway Smooth Muscle Proliferation. The effect of dehydroepiandrosterone (DHEA) and 16α-bromoepiandrosterone (16α-BrEA) on cellular proliferation was studied in cultures stimulated with 0.5-10% FBS or 1-50 ng/ml recombinant human platelet derived growth factor (PDGF-AA). […] See, for example, the method of Le, Y. Y. , and Xu, R.B., "The molecular mechanism of the action of the pharmacological doses of glucocorticoids. Studies on the low-affinity glucocorticoid receptor," Receptor, 5, 63-69 (1995).
Background: Formazan colour is commonly taken as a measure of viable cells.

As for `C[C@]12CC[C@H](O)CC1=CC[C@@H]1[C@@H]2CC[C@]2(C)C(=O)CC[C@@H]12` [DHEA, dehydroepiandrosterone], the “growth inhibition by direct visual count of stained cells” value was “confirmed by cell counts” and the “inhibition of FBS-induced cell proliferation (comparison in words)” value is reported as “more active than DHEA-sulfate at high concentrations”. In addition, the “cell proliferation stimulated by PDGF” value (50 ng/ml PDGF, 50,000 cells/well cultured for 72 hours, MTT (Figure 3B)) was “inhibites cell proliferation”.

Regarding `C[C@]12CC[C@H](O)C[C@@H]1CC[C@@H]1[C@@H]2CC[C@]2(C)C(=O)[C@H](Br)C[C@@H]12` [16α-BrEA, 16α-bromoepiandrosterone], the “growth inhibition by direct visual count of stained cells” value is on record as “confirmed by cell counts” and the “inhibition of FBS-induced cell proliferation (comparison in words)” value is reported as “even more potent inhibitor of FBS-induced cell proliferation than DHEA”. For the same compound, for the setting “Rattus norvegicus, 48 h, read-out: 50% inhibitory concentration”, the IC50 turned out to be 7.5 µM.
